Laboratory results: patent US12404241B2 (Celgene Corporation, priority 2018, dated 2025)

Molecular target: T1, AR (Homo sapiens, UniProt P10275)
T1 construct: endogenous in cells; host or cells: VCaP cells
T1 sequence (P10275 1-920): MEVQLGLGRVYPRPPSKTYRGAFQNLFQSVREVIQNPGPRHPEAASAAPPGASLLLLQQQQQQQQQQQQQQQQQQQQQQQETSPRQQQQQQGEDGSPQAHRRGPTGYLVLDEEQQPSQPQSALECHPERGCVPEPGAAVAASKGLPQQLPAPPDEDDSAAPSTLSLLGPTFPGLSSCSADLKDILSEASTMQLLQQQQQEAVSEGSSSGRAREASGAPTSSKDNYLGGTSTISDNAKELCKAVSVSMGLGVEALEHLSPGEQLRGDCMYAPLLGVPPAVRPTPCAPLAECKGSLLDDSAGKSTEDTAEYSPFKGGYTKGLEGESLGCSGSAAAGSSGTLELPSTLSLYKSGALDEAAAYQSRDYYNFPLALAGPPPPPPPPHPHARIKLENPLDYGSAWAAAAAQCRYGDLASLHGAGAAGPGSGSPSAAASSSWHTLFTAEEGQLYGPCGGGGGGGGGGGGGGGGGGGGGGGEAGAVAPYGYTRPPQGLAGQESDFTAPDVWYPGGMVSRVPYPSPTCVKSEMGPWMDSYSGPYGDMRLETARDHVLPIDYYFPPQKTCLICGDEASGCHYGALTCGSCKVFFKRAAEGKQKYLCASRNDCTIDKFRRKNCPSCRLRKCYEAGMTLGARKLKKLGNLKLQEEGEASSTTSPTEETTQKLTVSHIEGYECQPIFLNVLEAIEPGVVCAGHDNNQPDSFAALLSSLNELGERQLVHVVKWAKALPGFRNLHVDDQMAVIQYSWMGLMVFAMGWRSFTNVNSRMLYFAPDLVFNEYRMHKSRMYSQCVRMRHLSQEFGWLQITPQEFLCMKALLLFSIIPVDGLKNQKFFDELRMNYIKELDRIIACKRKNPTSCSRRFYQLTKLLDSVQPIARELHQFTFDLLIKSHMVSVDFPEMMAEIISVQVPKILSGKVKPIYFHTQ
Assay: VCAP AR Degradation Assay
Assay type: cell-based
Details: for Y (AR degradation efficiency, % of DMSO control): class symbols *; for DC50: class symbols A-C, read-out: DC50
How it was run: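 Compounds were plated as 10-point 1:3 series reaching 5 μM final, then VCaP cells were seeded onto them and incubated 24 h at 37 °C. Cells were lysed cold, and total AR was measured by sandwich ELISA relative to 0.1% DMSO wells.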

SMILES | Y (AR degradation efficiency, % of DMSO control) | DC50
C[C@@H]1CN(CCOc2ccc(N3C(=S)N(c4ccc(C#N)c(C(F)(F)F)c4)C(=O)C3(C)C)cc2F)CCN1CC(=O)Nc1cccc(NC2CCC(=O)NC2=O)c1 (stereo partly drawn) [Example 277, 2-((R)-4-(2-(4-(3-(4-cyano-3-(trifluoromethyl)phenyl)-5,5-dimethyl-4-oxo-2-thioxoimidazolidin-1-yl)-2-fluorophenoxy)ethyl)-2-methylpiperazin-1-yl)-N-(3-(2,6-dioxopiperidin-3-ylamino)phenyl)acetamide] | *** (35%<Y<50%) | < 0.1 µM
C[C@@H]1CN(CCOc2ccc(N3C(=S)N(c4cnc(C#N)c(C(F)(F)F)c4)C(=O)C3(C)C)cc2CCF)CCN1CC(=O)Nc1cccc(NC2CCC(=O)NC2=O)c1 (stereo partly drawn) [Example 166, 2-((R)-4-(2-(4-(3-(6-cyano-5-(trifluoromethyl)pyridin-3-yl)-5,5-dimethyl-4-oxo-2-thioxoimidazolidin-1-yl)-2-(2-fluoroethyl)phenoxy)ethyl)-2-methylpiperazin-1-yl)-N-(3-(2,6-dioxopiperidin-3-ylamino)phenyl)acetamide] | * (0<Y<=25%) | < 0.1 µM
C[C@@H]1CN(CC(=O)Nc2cccc(NC3CCC(=O)NC3=O)c2)[C@H](C)CN1CCOc1ccc(N2C(=S)N(c3ccc(C#N)c(C(F)(F)F)c3)C(=O)C2(C)C)cc1C1CC1 (stereo partly drawn) [Example 203, 2-((2R,5R)-4-(2-(4-(3-(4-cyano-3-(trifluoromethyl)phenyl)-5,5-dimethyl-4-oxo-2-thioxoimidazolidin-1-yl)-2-cyclopropylphenoxy)ethyl)-2,5-dimethylpiperazin-1-yl)-N-(3-(2,6-dioxopiperidin-3-ylamino)phenyl)acetamide] | * (0<Y<=25%) | < 0.1 µM
CCc1cc(N2C(=S)N(c3ccc(C#N)c(C(F)(F)F)c3)C(=O)C2(C)C)cc(F)c1OCCN1C[C@@H](C)N(CC(=O)Nc2cccc(NC3CCC(=O)NC3=O)c2)[C@@H](C)C1 (stereo partly drawn) [Example 248, 2-((2S,6R)-4-(2-(4-(3-(4-cyano-3-(trifluoromethyl)phenyl)-5,5-dimethyl-4-oxo-2-thioxoimidazolidin-1-yl)-2-ethyl-6-fluorophenoxy)ethyl)-2,6-dimethylpiperazin-1-yl)-N-(3-(2,6-dioxopiperidin-3-ylamino)phenyl)acetamide] | * (0<Y<=25%) | < 0.1 µM
C[C@@H]1CN(CCOc2ccc(N3C(=S)N(c4ccc(C#N)c(Cl)c4)C(=O)C3(C)C)cc2C2CC2)C[C@H](C)N1CC(=O)Nc1cccc(NC2CCC(=O)NC2=O)c1 (stereo partly drawn) [Example 206, 2-((2S,6R)-4-(2-(4-(3-(3-chloro-4-cyanophenyl)-5,5-dimethyl-4-oxo-2-thioxoimidazolidin-1-yl)-2-cyclopropylphenoxy)ethyl)-2,6-dimethylpiperazin-1-yl)-N-(3-(2,6-dioxopiperidin-3-ylamino)phenyl)acetamide] | * (0<Y<=25%) | < 0.1 µM
CC(C)c1cc(N2C(=S)N(c3cnc(C#N)c(C(F)(F)F)c3)C(=O)C23CCC3)ccc1OCCN1C[C@@H](C)N(CC(=O)Nc2cc(Cl)cc(NC3CCC(=O)NC3=O)c2)[C@@H](C)C1 (stereo partly drawn) [Example 195, N-(3-chloro-5-(2,6-dioxopiperidin-3-ylamino)phenyl)-2-((2S,6R)-4-(2-(4-(7-(6-cyano-5-(trifluoromethyl)pyridin-3-yl)-8-oxo-6-thioxo-5,7-diazaspiro[3.4]octan-5-yl)-2-isopropylphenoxy)ethyl)-2,6-dimethylpiperazin-1-yl)acetamide] | * (0<Y<=25%) | < 0.1 µM
CC(C)c1cc(N2C(=S)N(c3ccc(C#N)c(C(F)(F)F)c3)C(=O)C23CCC3)cnc1OCCN1C[C@@H](C)N(CC(=O)Nc2cc(C#N)cc(NC3CCC(=O)NC3=O)c2)C[C@H]1C (stereo partly drawn) [Example 231, 2-((2R,5R)-4-(2-(5-(7-(4-cyano-3-(trifluoromethyl)phenyl)-8-oxo-6-thioxo-5,7-diazaspiro[3.4]octan-5-yl)-3-isopropylpyridin-2-yloxy)ethyl)-2,5-dimethylpiperazin-1-yl)-N-(3-cyano-5-(2,6-dioxopiperidin-3-ylamino)phenyl)acetamide] | * (0<Y<=25%) | 0.1 to 0.5 µM
CCc1cc(N2C(=S)N(c3ccc(C#N)c(C(F)(F)F)c3)C(=O)C2(C)C)ccc1O[C@@H](C)CN1C[C@@H](C)N(CC(=O)Nc2cccc(NC3CCC(=O)NC3=O)c2)[C@@H](C)C1 (single isomer, unassigned) [Example 242] | *** (35%<Y<50%) | 0.5 to 1 µM
CC(C)c1cc(N2C(=S)N(c3ccc(C#N)c(C(F)(F)F)c3)C(=O)C2(C)C)ccc1OCCN1C[C@@H](C)N(CC(=O)Nc2cccc(NC3CCC(=O)NC3=O)c2)C[C@H]1C (stereo partly drawn) [Example 193, 2-((2R,5R)-4-(2-(4-(3-(4-cyano-3-(trifluoromethyl)phenyl)-5,5-dimethyl-4-oxo-2-thioxoimidazolidin-1-yl)-2-isopropylphenoxy)ethyl)-2,5-dimethylpiperazin-1-yl)-N-(3-(2,6-dioxopiperidin-3-ylamino)phenyl)acetamide] | ** (25%<Y<=35%) | 0.1 to 0.5 µM
CCc1cc(N2C(=S)N(c3ccc(C#N)c(C(F)(F)F)c3)C(=O)C2(C)C)ccc1OCCN1CCN([C@@H](C)C(=O)Nc2cccc(NC3CCC(=O)NC3=O)c2)[C@H](C)C1 (stereo partly drawn) [Example 281, (2S)-2-((R)-4-(2-(4-(3-(4-cyano-3-(trifluoromethyl)phenyl)-5,5-dimethyl-4-oxo-2-thioxoimidazolidin-1-yl)-2-ethylphenoxy)ethyl)-2-methylpiperazin-1-yl)-N-(3-(2,6-dioxopiperidin-3-ylamino)phenyl)propanamide] | * (0<Y<=25%) | < 0.1 µM
CCc1cc(N2C(=S)N(c3cnc(C#N)c(C(F)(F)F)c3)C(=O)C2(C)C)ccc1OCCN1CCN([C@@H](C)C(=O)Nc2cc(Cl)cc(NC3CCC(=O)NC3=O)c2)CC1 (single isomer, unassigned) [Example 114] | * (0<Y<=25%) | < 0.1 µM
CCc1cc(N2C(=S)N(c3cnc(C#N)c(C(F)(F)F)c3)C(=O)C2(C)C)ccc1OCCN1CCN(CC(=O)Nc2cc(Cl)cc(NC3CCC(=O)NC3=O)c2)[C@H](C)C1 (stereo partly drawn) [Example 74, N-(3-chloro-5-(2,6-dioxopiperidin-3-ylamino)phenyl)-2-((R)-4-(2-(4-(3-(6-cyano-5-(trifluoromethyl)pyridin-3-yl)-5,5-dimethyl-4-oxo-2-thioxoimidazolidin-1-yl)-2-ethylphenoxy)ethyl)-2-methylpiperazin-1-yl)acetamide] | * (0<Y<=25%) | < 0.1 µM
CCc1cc(N2C(=S)N(c3ccc(C#N)c(C(F)(F)F)c3)C(=O)C2(C)C)ccc1OCCN1CCN(CC(=O)Nc2cc(Cl)cc(NC3CCC(=O)NC3=O)c2)[C@H](C)C1 (stereo partly drawn) [Example 87, N-(3-chloro-5-(2,6-dioxopiperidin-3-ylamino)phenyl)-2-((R)-4-(2-(4-(3-(4-cyano-3-(trifluoromethyl)phenyl)-5,5-dimethyl-4-oxo-2-thioxoimidazolidin-1-yl)-2-ethylphenoxy)ethyl)-2-methylpiperazin-1-yl)acetamide] | * (0<Y<=25%) | < 0.1 µM
CCc1cc(N2C(=S)N(c3ccc(C#N)c(C(F)(F)F)c3)C(=O)C2(C)C)ccc1OCCN1CCN(CC(=O)Nc2cc(F)cc(NC3CCC(=O)NC3=O)c2)C2(CC2)C1 (stereo not drawn) [Example 109, 2-(7-(2-(4-(3-(4-cyano-3-(trifluoromethyl)phenyl)-5,5-dimethyl-4-oxo-2-thioxoimidazolidin-1-yl)-2-ethylphenoxy)ethyl)-4,7-diazaspiro[2.5]octan-4-yl)-N-(3-(2,6-dioxopiperidin-3-ylamino)-5-fluorophenyl)acetamide] | * (0<Y<=25%) | < 0.1 µM
CCc1cc(N2C(=S)N(c3cnc(C#N)c(C(F)(F)F)c3)C(=O)C2(C)C)ccc1OCCN1CCN(CC(=O)Nc2cc(Cl)cc(NC3CCC(=O)NC3=O)c2)C(C)(C)C1 (stereo not drawn) [Example 78, N-(3-chloro-5-(2,6-dioxopiperidin-3-ylamino)phenyl)-2-(4-(2-(4-(3-(6-cyano-5-(trifluoromethyl)pyridin-3-yl)-5,5-dimethyl-4-oxo-2-thioxoimidazolidin-1-yl)-2-ethylphenoxy)ethyl)-2,2-dimethylpiperazin-1-yl)acetamide] | * (0<Y<=25%) | < 0.1 µM
